{"source": "patent US7615534B2", "about": "“Antimicrobial peptides and use thereof” (Toagosei Co., Ltd, priority 2005, dated 2009)", "note": "Where no end group is shown, it is not given here."}
{"system": "Staphylococcus aureus IFO 12732", "format": "cell-based", "conditions": "37° C., turbidity 24 hours later, diluents approximately 50 μM to approximately 0.39 μM, approximately 1×10^6 cells/mL", "experimental": "(§1) Regarding the antimicrobial peptide in each of samples 1 to 14, the antimicrobial activities (minimum inhibitory concentration: MIC) with respect to gram-positive bacteria (Staphylococcus aureus IFO 12732) were determined, as described below, by a liquid medium dilution technique using a 96-well microplate. Staphylococcus aureus bacteria are inoculated from a preservation medium to an agar plate medium (“Muller Hinton Agar” manufactured by DIFCO), and thereafter stationary cultured for 18 hours at 37° C. Cultured bacteria were scratched twice using a disposable loop, and gathered bacteria were suspended in 5 mL of physiological saline. The OD660 value of the bacterial suspension derived from diluting the suspension 10 times with physiological saline was determined. The bacterial suspension used in the following tests was prepared by utilizing physiological saline, such that its OD660 value was 0.1 (therefore, bacteria concentration: approximately 2×10^7 cells/mL).\n(§2) Each peptide sample derived by the above-described method was dissolved with sterile distilled water, which served as a carrier in the present example, to prepare a drug of predetermined concentration. More specifically, an appropriate amount of peptide sample were added into an Eppendorf (registered trademark) tube with an appropriate capacity, and such peptide sample were dissolved with sterile distilled water to prepare 2 mM of drug (peptide solution). The derived drug was appropriately diluted, and each diluent of approximately 50 μM to approximately 0.39 μM was prepared. Thereafter, each diluent was respectively introduced into the well of a polystyrene 96-round-bottom-well microplate prepared in advance. Next, 5 μL of the bacterial suspension having 0.1 OD660 was added (test bacteria quantity: approximately 1×10^6 cells/mL) respectively to each well containing the diluent of each concentration. The microplate was then incubated in an incubator at 37° C., and the presence of bacteria was evaluated based on the turbidity 24 hours later. The minimum drug concentration (peptide concentration), in which an increased in turbidity caused by bacteria was not detected at the time of measurement, was defined as MIC (unit: μM) in the present example."}
{"compound": "EELLKAVRLIKLLYQ-NH2 [Sample 8, EELLKAVRLIKLLYQ]", "Antimicrobial Activities (MIC) S. aureus (24 hours later)": "25 µM"}
{"compound": "ENLLKAIRLIKFLYQ-NH2 [Sample 14, ENLLKAIRLIKFLYQ]", "Antimicrobial Activities (MIC) S. aureus (24 hours later)": "6.25 µM"}
{"compound": "RELLTAVRIIKILYQ-NH2 [Sample 12, RELLTAVRIIKILYQ]", "Antimicrobial Activities (MIC) S. aureus (24 hours later)": "25 µM"}
{"compound": "EDLLRTVRLIKVLYQ-NH2 [Sample 13, EDLLRTVRLIKVLYQ]", "Antimicrobial Activities (MIC) S. aureus (24 hours later)": "50 µM"}
{"compound": "CC[C@H](C)[C@H](NC(=O)[C@H](CC(C)C)NC(=O)[C@H](CCCNC(=N)N)NC(=O)[C@@H](N)C(C)C)C(=O)N[C@@H](CCCCN)C(=O)N[C@@H](CC(C)C)C(=O)N[C@@H](CC(C)C)C(=O)N[C@@H](Cc1ccc(O)cc1)C(=O)N[C@@H](CCC(N)=O)C(N)=O", "note": "[Sample 1, VRLLKLLYQ]", "Antimicrobial Activities (MIC) S. aureus (24 hours later)": "50 µM"}
{"compound": "EDLLKAVRLIKFLYQ-NH2 [Sample 9, EDLLKAVRLIKFLYQ]", "Antimicrobial Activities (MIC) S. aureus (24 hours later)": "25 µM"}
{"compound": "CC[C@H](C)[C@H](NC(=O)[C@H](CC(C)C)NC(=O)[C@H](CCCNC(=N)N)NC(=O)[C@@H](NC(=O)[C@@H](NC(=O)[C@H](CCCNC(=N)N)NC(=O)[C@@H](NC(=O)[C@H](CC(C)C)NC(=O)[C@H](CCC(=O)O)NC(=O)[C@@H](N)CCC(=O)O)[C@@H](C)CC)[C@@H](C)O)C(C)C)C(=O)N[C@@H](CCCCN)C(=O)N[C@@H](CC(C)C)C(=O)N[C@@H](CC(C)C)C(=O)N[C@@H](Cc1ccc(O)cc1)C(=O)N[C@@H](CCC(N)=O)C(N)=O", "note": "[Sample 10, EELIRTVRLIKLLYQ]", "Antimicrobial Activities (MIC) S. aureus (24 hours later)": "25 µM"}
{"compound": "VRFIKFLYQ-NH2 [Sample 3, VRFIKFLYQ]", "Antimicrobial Activities (MIC) S. aureus (24 hours later)": "25 µM"}
{"compound": "KTKEGVKT (KTKEGVKT-NH2) [Comparative Sample 1, reference compound]", "Antimicrobial Activities (MIC) S. aureus (24 hours later)": "No Activity"}
{"compound": "RLIKLLYQ-NH2 [Sample 6, RLIKLLYQ]", "Antimicrobial Activities (MIC) S. aureus (24 hours later)": "25 µM"}
{"compound": "IRLIKFLYQ-NH2 [Sample 5, IRLIKFLYQ]", "Antimicrobial Activities (MIC) S. aureus (24 hours later)": "25 µM"}
{"compound": "RRAAQAVRLIKLLYQ-NH2 [Sample 11, RRAAQAVRLIKLLYQ]", "Antimicrobial Activities (MIC) S. aureus (24 hours later)": "6.25 µM"}
{"compound": "VRLIKFLYQ-NH2 [Sample 2, VRLIKFLYQ]", "Antimicrobial Activities (MIC) S. aureus (24 hours later)": "12.5 µM"}
{"compound": "RLIKLLYQRLIKLLYQ-NH2 [Sample 7, RLIKLLYQ RLIKLLYQ]", "Antimicrobial Activities (MIC) S. aureus (24 hours later)": "6.25 µM"}
{"system": "Staphylococcus aureus IFO 12732", "format": "cell-based", "conditions": "summary of Table 2", "experimental": "as §1, §2"}
{"compound": "KTKEGVKT (KTKEGVKT-NH2) [Comparative Sample 1, reference compound]", "antimicrobial activity (in words)": "no antimicrobial activity was detected"}
